Results: article PMC5569935, “Pleiotropic Effects of Biguanides on Mitochondrial Reactive Oxygen Species Production” (Oxidative Medicine and Cellular Longevity, 2017)

Columns and labels:
[1] = test system: H2O2 (ROS) production of BAT mitochondria; test: Fluorometric detection of hydrogen peroxide production (Amplex UltraRed) in fresh BAT mitochondria; type: biochemical, rat; conditions: for ROS production on titration, all substrates tested: metformin 0–200 mM or phenformin 0–60 mM, pattern highly similar for all substrates
Procedure: (§1) We used interscapular brown adipose tissue (BAT) of four-week-old Wistar rats kept at 22°C under 12 h/12 h light/dark cycle on a standard diet and water supply ad libitum. All animal works were approved by the institutional ethics committee and were in accordance with the EU Directive 2010/63/EU for animal experiments. Mitochondria were isolated in STE medium (250 mM sucrose, 10 mM Tris–HCl, 1 mM EDTA, pH 7.4) and supplemented with BSA (10 mg/mL) by differential centrifugation. Quality of isolation was routinely checked by oxygraph, and fresh mitochondria were used for measurements of oxygen consumption and hydrogen peroxide production. Subsequently, frozen-thawed mitochondria were used for determination of enzymatic activities; as in such preparations, the integrity of mitochondrial membrane is disrupted and NADH has therefore access to the oxidation site of NDH. Also, freezing/thawing ensures that the membrane potential is not maintained.
Hydrogen peroxide production was determined fluorometrically by measuring oxidation of Amplex UltraRed (Thermo Fisher) essentially as before. Fluorescence of the Amplex UltraRed oxidation product was measured at 37°C using Tecan Infinite M200 multiwell fluorometer. Excitation/emission wavelengths were 544 nm (bandwidth 15 nm)/590 nm (bandwidth 30 nm). The assay was performed with 10 μg of mitochondrial protein in KCl-based medium (120 mM KCl, 3 mM HEPES, 5 mM KH2PO4, 3 mM MgSO4, 1 mM EGTA, 3 mg/mL BSA, pH 7.2) supplemented either with 10 mM pyruvate plus 2 mM malate, 10 mM succinate, or 10 mM GP. Amplex UltraRed was used at the final concentration of 50 μM with horseradish peroxidase (HRP) at 1 U/mL. Fluorescence signal from the well containing all substrates and inhibitors, but not mitochondria, was subtracted as a background for every experimental condition used. Background, caused mostly by autoxidation of the dye or nonenzymatic effect of inhibitors on apparent ROS production, varied between conditions from 0 to 1 pmol/s/mg and was uniform across respective titration points. Signal was calibrated using H2O2 at the final concentration of 0–5 μM, and H2O2 stock concentration was routinely checked by measuring its absorption at 240 nm.

treated patients = conditions: cited from earlier work
[2] = test system: respiration of BAT mitochondria (pyruvate plus malate, succinate, glycerophosphate); test: Polarographic oxygen consumption of isolated BAT mitochondria with substrates of NDH, SDH and mGPDH; type: biochemical, rat; conditions: at the same concentrations as enzyme inhibition (IC50 80 to 180 mM)
Procedure: as §1
(§2) Oxygen consumption was measured at 30°C as described before using Oxygraph-2k (Oroboros, Austria). Measurements were performed in 2 mL of KCl medium (80 mM KCl, 10 mM Tris–HCl, 3 mM MgCl2, 1 mM EDTA, 5 mM K-Pi, pH 7.4) using 15–60 μg protein/mL of freshly isolated mitochondria. For measurements, 10 mM pyruvate plus 2 mM malate, 10 mM succinate, or 10 mM GP, respectively, were used. The oxygen consumption was expressed in pmol oxygen/s/mg protein.

[3] = biological target: respiratory chain dehydrogenases NDH, SDH, and mGPDH; test: Enzyme activity assays of mitochondrial dehydrogenases in frozen-thawed BAT mitochondria (spectrophotometry); type: biochemical, rat; conditions: isolated BAT mitochondria, range over all three enzymes, read-out: IC50, inhibition of respiratory chain dehydrogenase enzyme activities (NDH, SDH, mGPDH)
Procedure: as §1, with “Also, freezing/thawing ensures that the membrane potential is not maintained.” left out
(§3) Activities of mitochondrial dehydrogenases were determined spectrophotometrically as NADH oxidoreductases (NDH, monitored at 340 nm, ε340 = 6.22 mM^−1·cm^−1) or CoQ1 oxidoreductases (SDH and mGPDH, monitored at 275 nm, ε275 = 13.6 mM^−1·cm^−1). […] The reaction was started by adding 100 μM NADH, 25 mM glycerophosphate (GP), or 25 mM succinate, respectively, and after 5–10 minutes, changes of absorbance were monitored at 30°C. Enzyme activities were expressed as pmol/s/mg protein.

[4] = test system: NADH dehydrogenase (complex I, NDH); test: NDH enzyme activity (NADH oxidoreductase) in BAT mitochondria; type: biochemical, rat
Procedure: as §1, with “Also, freezing/thawing ensures that the membrane potential is not maintained.” left out
as §3

[5] = reported values; cited from earlier work
[6] = biological target: T1, mitochondrial glycerophosphate dehydrogenase (mGPDH) (Rattus norvegicus, UniProt P35571); test: mGPDH activity (glycerophosphate:CoQ1 oxidoreductase) in BAT mitochondria; type: biochemical
T1 construct: from tissue; host or cells: mitochondria isolated from rat interscapular brown adipose tissue
T1 sequence (P35571 43-727): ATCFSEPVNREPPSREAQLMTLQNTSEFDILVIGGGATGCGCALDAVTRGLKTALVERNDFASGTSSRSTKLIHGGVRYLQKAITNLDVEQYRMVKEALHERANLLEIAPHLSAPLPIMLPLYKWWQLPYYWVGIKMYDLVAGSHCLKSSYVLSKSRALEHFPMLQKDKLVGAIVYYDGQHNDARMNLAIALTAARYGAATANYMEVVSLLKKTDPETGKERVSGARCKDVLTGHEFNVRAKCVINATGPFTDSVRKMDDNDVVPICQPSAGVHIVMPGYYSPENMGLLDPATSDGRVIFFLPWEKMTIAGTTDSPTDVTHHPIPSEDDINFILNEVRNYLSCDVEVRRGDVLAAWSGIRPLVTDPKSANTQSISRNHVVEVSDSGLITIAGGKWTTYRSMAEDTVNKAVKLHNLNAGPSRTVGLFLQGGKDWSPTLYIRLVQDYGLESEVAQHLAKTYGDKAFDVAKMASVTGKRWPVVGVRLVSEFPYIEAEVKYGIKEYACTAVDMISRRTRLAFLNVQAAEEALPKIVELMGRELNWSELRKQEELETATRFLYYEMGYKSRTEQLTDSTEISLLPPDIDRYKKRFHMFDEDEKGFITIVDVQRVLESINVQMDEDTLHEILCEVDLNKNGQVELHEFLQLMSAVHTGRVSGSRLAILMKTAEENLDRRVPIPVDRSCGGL
Procedure: as §1, with “Also, freezing/thawing ensures that the membrane potential is not maintained.” left out
as §3

[7] = biological target: T2, succinate dehydrogenase (SDH) (Rattus norvegicus, UniProt P21913+Q641Z9+Q6PCT8+Q920L2); test: SDH activity (succinate:CoQ1 oxidoreductase / succinate respiration) in BAT mitochondria; type: biochemical
T2 construct: from tissue; host or cells: mitochondria isolated from rat interscapular brown adipose tissue
Procedure: as §1, with “Subsequently, frozen-thawed mitochondria were used for determination of enzymatic activities; as in such preparations, the integrity of mitochondrial membrane is disrupted and NADH has therefore access to the oxidation site of NDH. Also, freezing/thawing ensures that the membrane potential is not maintained.” left out
as §3
Oxygen consumption was measured at 30°C as described before using Oxygraph-2k (Oroboros, Austria). […]

[8] = test system: pyruvate plus malate-supported oxygen consumption (NDH); test: Pyruvate plus malate-supported oxygen consumption of BAT mitochondria; type: biochemical, rat
Procedure: as §1, §2

T2 sequence (Q920L2 35-656): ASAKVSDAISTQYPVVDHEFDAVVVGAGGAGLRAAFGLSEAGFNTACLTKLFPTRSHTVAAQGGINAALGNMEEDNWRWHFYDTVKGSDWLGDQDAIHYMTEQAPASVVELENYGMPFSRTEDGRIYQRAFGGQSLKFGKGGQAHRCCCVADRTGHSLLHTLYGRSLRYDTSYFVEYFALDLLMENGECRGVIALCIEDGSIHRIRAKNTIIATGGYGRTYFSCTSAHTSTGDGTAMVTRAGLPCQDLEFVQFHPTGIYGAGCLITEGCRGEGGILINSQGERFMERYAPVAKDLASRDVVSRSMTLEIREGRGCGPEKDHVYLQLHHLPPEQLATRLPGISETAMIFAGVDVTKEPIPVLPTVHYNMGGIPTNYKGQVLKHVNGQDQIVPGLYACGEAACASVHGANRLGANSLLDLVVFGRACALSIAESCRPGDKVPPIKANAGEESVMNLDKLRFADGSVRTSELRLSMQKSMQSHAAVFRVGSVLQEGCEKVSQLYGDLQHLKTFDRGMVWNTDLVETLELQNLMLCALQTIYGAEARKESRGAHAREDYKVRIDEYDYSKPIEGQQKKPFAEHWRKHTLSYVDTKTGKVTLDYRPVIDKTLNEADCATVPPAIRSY
T2 sequence (P21913 31-282): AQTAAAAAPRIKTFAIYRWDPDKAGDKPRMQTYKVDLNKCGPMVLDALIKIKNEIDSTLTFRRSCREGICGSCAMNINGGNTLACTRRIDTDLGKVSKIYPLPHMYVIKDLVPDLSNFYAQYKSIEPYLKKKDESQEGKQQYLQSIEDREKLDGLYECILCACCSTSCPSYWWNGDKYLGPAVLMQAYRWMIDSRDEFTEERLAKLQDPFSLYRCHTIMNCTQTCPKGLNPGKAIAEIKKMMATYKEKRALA
T2 sequence (Q641Z9 30-169 limits assumed): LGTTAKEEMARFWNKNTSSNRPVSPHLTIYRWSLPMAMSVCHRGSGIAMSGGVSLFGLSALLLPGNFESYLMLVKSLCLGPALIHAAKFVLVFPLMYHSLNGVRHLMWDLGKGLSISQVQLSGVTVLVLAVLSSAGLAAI
T2 sequence (Q6PCT8 57-159): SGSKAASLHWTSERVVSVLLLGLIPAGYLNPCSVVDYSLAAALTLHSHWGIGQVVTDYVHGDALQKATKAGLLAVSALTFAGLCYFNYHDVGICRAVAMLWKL

Compound: [H]/N=C(/N)N/C(=N/[H])NCCc1ccccc1 [phenformin]
- ROS production on titration, all substrates tested [1]: dose-dependent increase in ROS production
- Adverse effect leading to discontinued use (treated patients): induction of lactic acidosis

Compound: CN(C)C(=N)N=C(N)N [metformin, dimethyl biguanide]
- Effect on respiration with pyruvate and malate, succinate and glycerophosphate [2]: inhibited respiration
- ROS production on titration, all substrates tested [1]: dose-dependent increase in ROS production
- IC50 [3]: > 80000 µM
- Sensitivity of NDH activity to inhibitory action relative to SDH and mGPDH ([4]; metformin titration 0–200 mM, 100 μM NADH): most sensitive
- Concentration inside tumors [5]: 1 to 10 µM

Compound: O=C(O)CCC(=O)Nc1ccc(-c2nc3ccccc3[nH]2)cc1 [iGP-1]
- GP-dependent ROS production ([1]; 10 mM glycerophosphate, 100 μM iGP-1): inhibited
- Concentration at which activity of mGPDH was abolished [6]: 50 µM
- IC50 ([7]; enzyme activity and oxygen consumption, 10 mM succinate (Figures 4(b) and 4(d)), read-out: IC50, nonspecific action on SDH): ~80 µM

Compound: COc1[nH]c(=O)c(C(=O)[C@@H](C)C[C@H](C)[C@@H](Cl)CCl)c(O)c1OC [atpenin A5]
- ROS production with low levels of succinate ([1]; 0.4 mM succinate, 0.5 μM atpenin A5): pronounced increase in ROS production
- Concentration of complete inhibition of SDH ([7]; succinate as a substrate): 20 nM

Compound: C=C(C)[C@H]1Cc2c(ccc3c2O[C@@H]2COc4cc(OC)c(OC)cc4[C@@H]2C3=O)O1 [rotenone]
- Concentration of complete inhibition of pyruvate plus malate-supported oxygen consumption [8]: 500 nM
- Rate of H2O2 production with NADH-linked substrates ([1]; 10 mM pyruvate and 2 mM malate, 1 μM rotenone): increased the rate of H2O2 production
- Concentration of complete inhibition of complex I enzyme activity ([4]; BAT mitochondria): 500 nM
